Experimental data from US5140014A (Abbott Laboratories, priority 1989, dated 1992).
Values after ≈ are worked out from the molar mass of the structure shown. Like-named read-outs stand apart in the source and are kept apart here.

Columns and labels:
Assay in all cases: in vitro antibacterial activity, agar dilution method (MIC)
Type in all cases: cell-based
[1] = tested on: Staphylococcus Epidermidis; details: strain 3519; BHI agar, 20-24 hours
Method: (§1) The test medium was Brain Heart Infusion (BHI) agar. The antibacterial agent was dissolved at a concentration of 2,000 ug/mL. Test plates were then prepared, usually 12 two-fold dilutions. After adding the sample to the plates, 10 mL of cooled BHI agar medium was added to each plate. The organisms were grown overnight in BHI broth (Difco) in a 35°-37° C. incubator.
(§2) On the day of testing, the bacterial suspensions were diluted 1:100 in sterile distilled water, except for a few slow-growing organisms (usually Micrococcus and Streptococcus) which were diluted 1:10. The plate was then inoculated with approximately 10^4 organisms. This was incubated in a 35°-37° C. incubator for 20-24 hours. Thereafter, the plates were read to determine the minimum inhibitory concentration (MIC) defined as the lowest concentration of drug yielding no growth on the plate, a slight haze, or sparsely isolated colonies on the inoculum spot as compared to the growth control.

Enterobacter Aerogenes = details: strain ATCC 13048; BHI agar, 20-24 hours
Method: as §1, §2

Pseudomonas Aeruginosa = details: BHI agar, 20-24 hours
Method: as §1, §2

Enterococcus Faecium = details: strain ATCC 8043; BHI agar, 20-24 hours
Method: as §1, §2

Streptococcus Agalactiae = details: strain CMX 508; BHI agar, 20-24 hours
Method: as §1, §2

Haemophilus Influenzae = details: BHI agar, 20-24 hours
Method: as §1, §2

Providencia Stuartii = details: strain CMX 640, BHI agar, 20-24 hours
Method: as §1, §2

Staphylococcus Aureus = details: BHI agar, 20-24 hours
Method: as §1, §2

Acinetobacter Sp = details: strain CMX 669; BHI agar, 20-24 hours
Method: as §1, §2

Micrococcus Luteus = tested on: Micrococcus Luteus
Method: as §1, §2

Streptococcus Bovis = details: Streptococcus equinus, strain A5169, BHI agar, 20-24 hours
Method: as §1, §2

Klebsiella Pneumoniae = details: strain ATCC 8045; BHI agar, 20-24 hours
Method: as §1, §2

Streptococcus Pyogenes = details: BHI agar, 20-24 hours
Method: as §1, §2

Pseudomonas Cepacia = details: strain 296I, BHI agar, 20-24 hours
Method: (§3) Compounds 1 to 8 were evaluated for antibacterial activity by the agar dilution method to determine the degree of in vitro susceptibility of aerobic microorganisms to antimicrobial agents. The test medium was Brain Heart Infusion (BHI) agar. The antibacterial agent was dissolved at a concentration of 2,000 ug/mL. Test plates were then prepared, usually 12 two-fold dilutions. After adding the sample to the plates, 10 mL of cooled BHI agar medium was added to each plate. The organisms were grown overnight in BHI broth (Difco) in a 35°-37° C. incubator.
as §2

Escherichia Coli = details: BHI agar, 20-24 hours
Method: as §3, §2

[2] = strain ATCC 4698, BHI agar, 20-24 hours

CCC1OC(=O)CC(O)C(C)C(OC2OC(C)CC(N(C)C)C2O)C(CC=O)CC(C)C(N(C)C)CCC2(C)OC2C1C (stereo not shown) [Example 2, [9R]-9-Deoxo-10,11-dihydro-9-N,N-dimethylamino-rosaramicin]
MIC [1]: 25 µg/mL (≈ 40.8 µM)
MIC (Enterobacter Aerogenes): 100 µg/mL (≈ 163 µM)
MIC (Pseudomonas Aeruginosa; Pseudomonas aeruginosa, strain A5007, read-out: MIC): > 100 µg/mL
MIC (Pseudomonas Aeruginosa; Pseudomonas aeruginosa, strain BMH10, read-out: MIC): > 100 µg/mL
MIC (Pseudomonas Aeruginosa; Pseudomonas aeruginosa, strain K799/WT, read-out: MIC): > 100 µg/mL
MIC (Pseudomonas Aeruginosa; strain K799/61): 3.1 µg/mL (≈ 5.06 µM)
MIC (Enterococcus Faecium): 12.5 µg/mL (≈ 20.4 µM)
MIC (Streptococcus Agalactiae): 3.1 µg/mL (≈ 5.06 µM)
MIC (Haemophilus Influenzae; Haemophilus influenzae, ATCC9795, strain ATCC 9795, read-out: MIC): 2 µg/mL (≈ 3.26 µM)
MIC (Haemophilus Influenzae; Haemophilus influenzae, ATCC19418, strain ATCC 19418, read-out: MIC): 4 µg/mL (≈ 6.53 µM)
MIC (Haemophilus Influenzae; Haemophilus influenzae, ATCC43095, strain ATCC 43095, read-out: MIC): 4 µg/mL (≈ 6.53 µM)
MIC (Haemophilus Influenzae; Haemophilus influenzae, strain 566A, read-out: MIC): 2 µg/mL (≈ 3.26 µM)
MIC (Haemophilus Influenzae; Haemophilus influenzae, strain 588A, read-out: MIC): 2 µg/mL (≈ 3.26 µM)
MIC (Haemophilus Influenzae; Haemophilus influenzae, strain 632A, read-out: MIC): 2 µg/mL (≈ 3.26 µM)
MIC (Haemophilus Influenzae; Haemophilus influenzae, strain 747C, read-out: MIC): 2 µg/mL (≈ 3.26 µM)
MIC (Haemophilus Influenzae; Haemophilus influenzae, strain SOL AMP R, read-out: MIC): 2 µg/mL (≈ 3.26 µM)
MIC (Haemophilus Influenzae; Haemophilus influenzae, strain SPK AMP R, read-out: MIC): 0.5 µg/mL (≈ 0.816 µM)
MIC (Haemophilus Influenzae; strain 503B): 2 µg/mL (≈ 3.26 µM)
MIC (Haemophilus Influenzae; strain 504): 2 µg/mL (≈ 3.26 µM)
MIC (Haemophilus Influenzae; strain 519A): 1 µg/mL (≈ 1.63 µM)
MIC (Haemophilus Influenzae; strain 667A): 2 µg/mL (≈ 3.26 µM)
MIC (Haemophilus Influenzae; strain 751): 1 µg/mL (≈ 1.63 µM)
MIC (Haemophilus Influenzae; strain 1177): 0.25 µg/mL (≈ 0.408 µM)
MIC (Haemophilus Influenzae; strain 1435): 1 µg/mL (≈ 1.63 µM)
MIC (Haemophilus Influenzae; strain ATCC 10211): 2 µg/mL (≈ 3.26 µM)
MIC (Providencia Stuartii; Providencia stuartii, read-out: MIC): > 100 µg/mL
MIC (Staphylococcus Aureus; strain 45): 25 µg/mL (≈ 40.8 µM)
MIC (Staphylococcus Aureus; strain 45 RAR2): 25 µg/mL (≈ 40.8 µM)
MIC (Staphylococcus Aureus; strain 642A): 50 µg/mL (≈ 81.6 µM)
MIC (Staphylococcus Aureus; strain A5177): 25 µg/mL (≈ 40.8 µM)
MIC (Staphylococcus Aureus; strain ATCC 6538P): 25 µg/mL (≈ 40.8 µM)
MIC (Staphylococcus Aureus; strain CMX 553): 25 µg/mL (≈ 40.8 µM)
MIC (Staphylococcus Aureus; strain NCTC 10649): 25 µg/mL (≈ 40.8 µM)
MIC (Acinetobacter Sp): 25 µg/mL (≈ 40.8 µM)
MIC (Micrococcus Luteus; Micrococcus luteus, ATCC9341, strain ATCC 9341, BHI agar, 20-24 hours, read-out: MIC): 3.1 µg/mL (≈ 5.06 µM)
MIC (Micrococcus Luteus; [2]): 6.2 µg/mL (≈ 10.1 µM)
MIC (Streptococcus Bovis; read-out: MIC): 1.56 µg/mL (≈ 2.55 µM)
MIC (Klebsiella Pneumoniae): 25 µg/mL (≈ 40.8 µM)
MIC (Streptococcus Pyogenes; Streptococcus pyogenes, strain 930 CONST, read-out: MIC): > 100 µg/mL
MIC (Streptococcus Pyogenes; Streptococcus pyogenes, strain EES61, read-out: MIC): 3.1 µg/mL (≈ 5.06 µM)
MIC (Streptococcus Pyogenes; strain 2548 INDUC): 6.2 µg/mL (≈ 10.1 µM)
MIC (Pseudomonas Cepacia; Burkholderia cepacia, read-out: MIC): > 100 µg/mL
MIC (Escherichia Coli; Escherichia coli, strain SS, read-out: MIC): 0.2 µg/mL (≈ 0.326 µM)
MIC (Escherichia Coli; strain DC-2): 50 µg/mL (≈ 81.6 µM)
MIC (Escherichia Coli; strain JUHL): 100 µg/mL (≈ 163 µM)
MIC (Escherichia Coli; strain KNK 437): 50 µg/mL (≈ 81.6 µM)

CCC1OC(=O)CC(O)C(C)C(OC2OC(C)CC(N(C)C)C2O)C(CC=O)CC(C)C(N(C)C)CCC2(C)OC2C1C (stereo not shown) [Example 3, [9S]-9-Deoxo-10,11-dihydro-9-N,N-dimethylamino-rosaramicin]
MIC [1]: 1.56 µg/mL (≈ 2.55 µM)
MIC (Enterobacter Aerogenes): 12.5 µg/mL (≈ 20.4 µM)
MIC (Pseudomonas Aeruginosa; strain A5007): > 100 µg/mL
MIC (Pseudomonas Aeruginosa; strain BMH10): 100 µg/mL (≈ 163 µM)
MIC (Pseudomonas Aeruginosa; strain K799/61): 0.78 µg/mL (≈ 1.27 µM)
MIC (Pseudomonas Aeruginosa; strain K799/WT): 100 µg/mL (≈ 163 µM)
MIC (Enterococcus Faecium): 0.78 µg/mL (≈ 1.27 µM)
MIC (Streptococcus Agalactiae): 0.2 µg/mL (≈ 0.326 µM)
MIC (Haemophilus Influenzae; Haemophilus influenzae, strain 519A, read-out: MIC): 0.25 µg/mL (≈ 0.408 µM)
MIC (Haemophilus Influenzae; Haemophilus influenzae, strain 751, read-out: MIC): 4 µg/mL (≈ 6.53 µM)
MIC (Haemophilus Influenzae; Haemophilus influenzae, strain 1435, read-out: MIC): 0.5 µg/mL (≈ 0.816 µM)
MIC (Haemophilus Influenzae; Haemophilus influenzae, strain DILL AMP R, read-out: MIC): 0.5 µg/mL (≈ 0.816 µM)
MIC (Haemophilus Influenzae; strain 503B): 0.5 µg/mL (≈ 0.816 µM)
MIC (Haemophilus Influenzae; strain 504): 0.5 µg/mL (≈ 0.816 µM)
MIC (Haemophilus Influenzae; strain 566A): 1 µg/mL (≈ 1.63 µM)
MIC (Haemophilus Influenzae; strain 588A): 1 µg/mL (≈ 1.63 µM)
MIC (Haemophilus Influenzae; strain 632A): 1 µg/mL (≈ 1.63 µM)
MIC (Haemophilus Influenzae; strain 667A): 0.5 µg/mL (≈ 0.816 µM)
MIC (Haemophilus Influenzae; strain 747C): 1 µg/mL (≈ 1.63 µM)
MIC (Haemophilus Influenzae; strain 1177): 0.12 µg/mL (≈ 0.196 µM)
MIC (Haemophilus Influenzae; strain ATCC 9795): 1 µg/mL (≈ 1.63 µM)
MIC (Haemophilus Influenzae; strain ATCC 10211): 0.5 µg/mL (≈ 0.816 µM)
MIC (Haemophilus Influenzae; strain ATCC 19418): 1 µg/mL (≈ 1.63 µM)
MIC (Haemophilus Influenzae; strain ATCC 43095): 1 µg/mL (≈ 1.63 µM)
MIC (Haemophilus Influenzae; strain SOL AMP R): 1 µg/mL (≈ 1.63 µM)
MIC (Haemophilus Influenzae; strain SPK AMP R): 0.25 µg/mL (≈ 0.408 µM)
MIC (Providencia Stuartii): > 100 µg/mL
MIC (Staphylococcus Aureus; strain 45): 0.78 µg/mL (≈ 1.27 µM)
MIC (Staphylococcus Aureus; strain 45 RAR2): 1.56 µg/mL (≈ 2.55 µM)
MIC (Staphylococcus Aureus; strain 642A): 1.56 µg/mL (≈ 2.55 µM)
MIC (Staphylococcus Aureus; strain A5177): 0.78 µg/mL (≈ 1.27 µM)
MIC (Staphylococcus Aureus; strain ATCC 6538P): 1.56 µg/mL (≈ 2.55 µM)
MIC (Staphylococcus Aureus; strain CMX 553): 1.56 µg/mL (≈ 2.55 µM)
MIC (Staphylococcus Aureus; strain NCTC 10649): 0.78 µg/mL (≈ 1.27 µM)
MIC (Acinetobacter Sp): 3.1 µg/mL (≈ 5.06 µM)
MIC (Micrococcus Luteus; Micrococcus luteus, ATCC9341): 0.2 µg/mL (≈ 0.326 µM)
MIC (Micrococcus Luteus; [2]): 0.39 µg/mL (≈ 0.636 µM)
MIC (Streptococcus Bovis): 0.05 µg/mL (≈ 0.0816 µM)
MIC (Klebsiella Pneumoniae): 6.2 µg/mL (≈ 10.1 µM)
MIC (Streptococcus Pyogenes; strain 930 CONST): > 100 µg/mL
MIC (Streptococcus Pyogenes; strain 2548 INDUC): 0.78 µg/mL (≈ 1.27 µM)
MIC (Streptococcus Pyogenes; strain EES61): 0.1 µg/mL (≈ 0.163 µM)
MIC (Pseudomonas Cepacia): > 100 µg/mL
MIC (Escherichia Coli; strain DC-2): 6.2 µg/mL (≈ 10.1 µM)
MIC (Escherichia Coli; strain SS): 0.1 µg/mL (≈ 0.163 µM)
